# Laboratory results: patent US6767890B1, “Peptides having anti-cancer and anti-inflammatory activity” (priority 1998, dated 2004)
# Legend:
# [1] = biological target: T1, Cyclooxygenase-2 (Ovis aries, UniProt P79208); test: Cyclooxygenase-2 enzyme assay; type: biochemical, sheep; conditions: 300.0 μM; average of duplicate; negative = stimulation
# T1 construct: sheep placenta; from tissue; host or cells: sheep placenta
# Experimental: (§1) The peptide was further screened in vitro in a variety of enzyme and biochemical assays. Methods employed were adapted from the scientific literature to maximize reliability and reproducibility.
# Unless otherwise indicated, the peptide was tested in duplicate at the concentrations indicated for each assay. Results presented in Table 10, “Results,” are the average of duplicate determinations, unless otherwise noted.
# (§2) Enzyme assays were performed under conditions described in Table 8, “Experimental Conditions.”. The commercial suppliers and catalog numbers of substrates employed in this study are given in Table 7, “Material Sources.” The name, commercial source, and catalog numbers of concurrent reference compounds (controls) employed in this study are given in Table 9, “Reference Compound Data.” The reaction catalyzed by each enzyme is listed in Table 8, “Experimental Conditions.”
# (§3) Biochemical assay results are presented in Table 10, as the percent inhibition of specific binding or activity, and unless noted are the average of duplicate tubes tested at each concentration.
# [2] = biological target: T2, Protease - Elastase (Homo sapiens, UniProt P08246); test: Protease - Elastase enzyme assay; type: biochemical; conditions: 30.0 μM; average of duplicate; negative = stimulation
# T2 construct: neutrophils; endogenous in cells; host or cells: human neutrophils
# Experimental: as §1, with “reproducibility. The primary literature reference for each assay is listed in Table 11 opposite the results for each assay.” for “reproducibility.”
# (§4) Results presented in Table 10, “Results,” are the average of duplicate determinations, unless otherwise noted.
# Reference compounds were tested concurrently at 5 concentrations as an integral part of each assay to ensure the validity of the results obtained.
# as §2, §3
# [3] = test system: vasculature of chick embryos; test: CAM assay; type: in vivo
# Experimental: Method: The method used was that described in D. Knighton, D. Ausprunk, D. Tapper, and J. Folkman, “Avascular and Vascular Phases of Tumour Growth in the Chick Embryo.” J. Cancer 35:347-355 (1977) Procedure: The test compounds were suspended in sterile saline and then applied to methylcellulose discs, ¼ inch diameter with a micropipette and allowed to air dry at a concentration of 10 μg/disc.
# The test was graded as follows:
# The following scores are based on the observation of at least 10 chick embryos.
# [4] = biological target: Ca++ Ch.-L, Dihydropyridine (Rattus norvegicus, UniProt P22002); test: Ca++ Ch.-L, Dihydropyridine radioligand binding; conditions: 10.0 μM; specific binding of [3H]Nitrendipine; negative = stimulation
# Experimental: as §1, §4
# Radioligand binding assays were performed under conditions described in Table 8, “Experimental Conditions.” Radioligands employed in this study are given in Table 8, and commercial sources and catalog numbers of the radioligands are provided in Table 7, “Material Sources.” Unlabeled, blocking ligands employed this study are listed in Table 8, “Experimenal Conditions,” along with the commercial sources and catalog number of the unlabeled ligand. The concurrent reference compound (control) employed in each assay is listed in Table 9, “Reference Compound Data,” along with the commercial supplier and catalog number of the compound. Where receptors have been obtained through recombinant expression techniques, the species from which the cDNA was obtained, and the type of expression system employed (mammalian, insect, bacterial) is also given Table 7.
# Maximum total binding and nonspecific binding were determined each time each assay was run. Nonspecific binding was defined as the proportion of total binding not displaced by unlabeled ligand specific for the receptor. […]
# [5] = test system: croton oil-induced ear inflammation; test: Mouse-ear edema model (croton oil); type: in vivo; conditions: 20 λ of 5% peptide in carbopol topically 30 min after 10% croton oil, ear biopsy weight at 24 hrs
# Text: Mouse-ear edema model. Croton-oil, which contains a variety of phorbol esters, and arachidonic acid (AA) are standard inducers of inflammation in mouse ears when applied topically. Phorbol esters, especially phorbol myristyl acetate (PMA), activate one or more isozymes of the ubiquitous membrane receptor, protein kinase C (PKC), which in turn initiates several metabolic cascades leading to inflammation. As is a substrate for one of these cascades, leading to prostaglandin and leukotriene production, both of which are inflammatory. Inhibition of such inflammation by a putative bioactive agent is considered a generalized indicator of potential pharmacologic activity.
# Male Swiss Webster mice (15-20 g) were purchased from B&K Universal, Kent, Wash. and maintained in the laboratory for one day prior to entering the experiment. At t=0, the ventral side of both ears of each mouse was challenged topically with 10 λ of 10% croton oil in acetone. […] The animals were sacrificed by cervical dislocation at t=24 hrs, the ears removed, and a biopsy take from each ear with an 8 mm punch. The biopsy was immediately weighed on a 4-place balance.
# [6] = biological target: T3, Interleukin-1α (Mus musculus, UniProt P13504); test: Interleukin-1α radioligand binding; conditions: 10.0 μM; specific binding of [125I]IL-1 alpha; negative = stimulation
# T3 construct: 3T3 cells; endogenous in cells; host or cells: Swiss 3T3 cells
# Experimental: as §1, with “reproducibility. The primary literature reference for each assay is listed in Table 11 opposite the results for each assay.” for “reproducibility.”
# as §4
# Reference compounds were tested concurrently at 5 concentrations as an integral part of each assay to ensure the validity of the results obtained. […]
# Maximum total binding and nonspecific binding were determined each time each assay was run. […]
# Where inhibition constants (Ki) are presented, the Ki values were calculated using the equation of Cheng and Prusoff (Cheng, Y., Prusoff, W. H., Biochem. Pharmacol. […], 1973) using the observed IC50 of the tested compound, the concentration of radioligand employed in the assay, and the historical values for the Kd of the ligand (obtained experimentally). Where presented, the Hill Coefficient (nH), defining the scope of the competitive binding curve, was calculated using GraphPad Prism. […] Where IC50, Ki, and/or Hill Slope data is presented without Standard Error of the Mean (SEM), data are insufficient to be quantitative, and the values presented (Ki, IC50, nH) should be interpreted with caution. […]
# T1 sequence (P79208 17-603): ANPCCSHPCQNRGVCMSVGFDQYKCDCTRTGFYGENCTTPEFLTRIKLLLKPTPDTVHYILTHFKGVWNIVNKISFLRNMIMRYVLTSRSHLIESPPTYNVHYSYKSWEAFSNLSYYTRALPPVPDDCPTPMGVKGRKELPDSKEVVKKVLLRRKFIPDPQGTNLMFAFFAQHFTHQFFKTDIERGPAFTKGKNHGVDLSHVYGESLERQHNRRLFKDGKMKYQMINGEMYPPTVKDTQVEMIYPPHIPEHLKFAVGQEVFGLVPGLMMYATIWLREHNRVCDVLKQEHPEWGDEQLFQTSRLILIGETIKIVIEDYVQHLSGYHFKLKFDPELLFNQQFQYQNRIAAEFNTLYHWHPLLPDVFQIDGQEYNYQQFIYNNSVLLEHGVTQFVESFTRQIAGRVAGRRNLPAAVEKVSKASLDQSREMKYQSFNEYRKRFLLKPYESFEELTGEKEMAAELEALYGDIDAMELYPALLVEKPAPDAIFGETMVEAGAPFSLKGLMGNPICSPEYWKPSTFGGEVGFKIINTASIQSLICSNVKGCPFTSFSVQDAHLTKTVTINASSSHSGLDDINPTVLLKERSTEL
# T2 sequence (P08246 30-267): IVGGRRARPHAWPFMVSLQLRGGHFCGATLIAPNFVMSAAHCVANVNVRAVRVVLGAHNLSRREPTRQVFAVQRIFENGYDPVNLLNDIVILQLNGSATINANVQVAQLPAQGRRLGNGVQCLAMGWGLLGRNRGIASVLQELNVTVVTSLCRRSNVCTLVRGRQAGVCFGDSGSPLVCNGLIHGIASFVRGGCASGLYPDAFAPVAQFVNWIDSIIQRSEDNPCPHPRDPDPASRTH
# T3 sequence (P13504 20-576): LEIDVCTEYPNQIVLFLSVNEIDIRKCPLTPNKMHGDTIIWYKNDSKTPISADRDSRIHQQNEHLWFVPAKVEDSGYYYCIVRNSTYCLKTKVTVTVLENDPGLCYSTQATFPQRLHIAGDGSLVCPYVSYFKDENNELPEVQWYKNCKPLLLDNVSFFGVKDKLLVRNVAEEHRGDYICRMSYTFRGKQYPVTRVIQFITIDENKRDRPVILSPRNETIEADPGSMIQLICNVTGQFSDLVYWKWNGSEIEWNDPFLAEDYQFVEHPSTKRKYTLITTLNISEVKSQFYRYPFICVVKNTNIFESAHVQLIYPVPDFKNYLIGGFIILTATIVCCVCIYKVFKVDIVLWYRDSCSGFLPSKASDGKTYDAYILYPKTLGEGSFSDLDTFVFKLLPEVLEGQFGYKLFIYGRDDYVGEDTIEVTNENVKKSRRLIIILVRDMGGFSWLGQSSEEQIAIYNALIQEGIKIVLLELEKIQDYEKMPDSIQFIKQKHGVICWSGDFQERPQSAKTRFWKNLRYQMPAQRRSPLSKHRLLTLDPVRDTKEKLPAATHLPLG
# Ca++ Ch.-L, Dihydropyridine, sequence (P22002 whole entry): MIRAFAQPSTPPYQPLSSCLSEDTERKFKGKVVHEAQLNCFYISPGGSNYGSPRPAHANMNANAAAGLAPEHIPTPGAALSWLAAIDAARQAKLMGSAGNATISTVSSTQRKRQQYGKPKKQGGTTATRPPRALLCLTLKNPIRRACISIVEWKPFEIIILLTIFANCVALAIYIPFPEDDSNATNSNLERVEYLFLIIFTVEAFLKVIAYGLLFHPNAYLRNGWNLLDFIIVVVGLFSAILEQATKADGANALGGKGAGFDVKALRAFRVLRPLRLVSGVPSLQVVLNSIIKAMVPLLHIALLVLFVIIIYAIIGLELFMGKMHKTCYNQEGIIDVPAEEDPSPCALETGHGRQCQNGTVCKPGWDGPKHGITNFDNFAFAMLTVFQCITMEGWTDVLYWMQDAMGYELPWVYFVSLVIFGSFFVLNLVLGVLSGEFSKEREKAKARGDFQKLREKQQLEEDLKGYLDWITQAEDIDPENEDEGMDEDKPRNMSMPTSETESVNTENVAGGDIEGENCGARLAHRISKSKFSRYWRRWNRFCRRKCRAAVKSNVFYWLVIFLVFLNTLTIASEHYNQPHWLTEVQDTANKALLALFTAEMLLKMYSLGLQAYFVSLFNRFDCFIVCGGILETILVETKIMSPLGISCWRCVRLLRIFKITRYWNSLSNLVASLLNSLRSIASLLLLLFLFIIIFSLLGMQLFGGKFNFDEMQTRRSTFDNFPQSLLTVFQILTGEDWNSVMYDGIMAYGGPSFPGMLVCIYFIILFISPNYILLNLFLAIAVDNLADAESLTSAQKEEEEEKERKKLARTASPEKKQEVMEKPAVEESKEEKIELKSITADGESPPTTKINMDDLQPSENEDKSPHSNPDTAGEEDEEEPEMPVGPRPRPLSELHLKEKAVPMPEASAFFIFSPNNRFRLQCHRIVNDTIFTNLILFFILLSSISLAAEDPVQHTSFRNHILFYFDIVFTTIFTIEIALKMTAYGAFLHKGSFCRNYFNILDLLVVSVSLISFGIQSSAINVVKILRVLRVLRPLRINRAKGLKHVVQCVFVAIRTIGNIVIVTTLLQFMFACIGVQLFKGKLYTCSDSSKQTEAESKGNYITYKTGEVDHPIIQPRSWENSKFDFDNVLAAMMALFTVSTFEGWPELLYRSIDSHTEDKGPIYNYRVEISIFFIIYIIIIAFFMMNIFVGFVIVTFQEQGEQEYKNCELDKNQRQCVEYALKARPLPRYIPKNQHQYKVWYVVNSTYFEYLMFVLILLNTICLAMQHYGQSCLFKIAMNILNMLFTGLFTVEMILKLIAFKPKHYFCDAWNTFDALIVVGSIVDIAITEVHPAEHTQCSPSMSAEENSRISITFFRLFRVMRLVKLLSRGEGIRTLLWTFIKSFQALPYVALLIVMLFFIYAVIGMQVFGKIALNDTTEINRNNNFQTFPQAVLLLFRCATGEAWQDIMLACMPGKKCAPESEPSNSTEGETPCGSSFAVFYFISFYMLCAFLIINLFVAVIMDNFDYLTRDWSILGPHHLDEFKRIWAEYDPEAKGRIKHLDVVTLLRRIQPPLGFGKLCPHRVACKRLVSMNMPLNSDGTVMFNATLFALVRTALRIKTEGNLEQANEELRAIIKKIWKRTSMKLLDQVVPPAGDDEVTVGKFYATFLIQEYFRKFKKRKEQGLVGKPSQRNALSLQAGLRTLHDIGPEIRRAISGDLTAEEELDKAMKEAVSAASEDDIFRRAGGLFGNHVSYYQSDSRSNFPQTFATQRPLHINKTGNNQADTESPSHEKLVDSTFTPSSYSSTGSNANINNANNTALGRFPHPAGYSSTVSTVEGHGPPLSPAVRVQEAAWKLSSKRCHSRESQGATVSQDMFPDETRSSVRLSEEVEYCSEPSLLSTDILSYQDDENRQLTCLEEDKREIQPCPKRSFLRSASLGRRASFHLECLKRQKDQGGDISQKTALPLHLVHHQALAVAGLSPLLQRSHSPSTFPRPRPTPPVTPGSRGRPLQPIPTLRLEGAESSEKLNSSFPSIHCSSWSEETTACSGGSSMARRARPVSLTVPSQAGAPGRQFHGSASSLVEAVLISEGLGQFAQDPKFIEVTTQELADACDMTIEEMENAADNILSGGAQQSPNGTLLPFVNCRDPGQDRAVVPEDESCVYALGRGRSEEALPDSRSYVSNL
substance,measurement,setting,value
LEU-PRO-PRO-SER-ARG [Peptide],% Inhibition,[1],2%
same,% Inhibition,[2],−11%
same,CAM assay antiangiogenesis score,"[3]; 10 μg/disc on methylcellulose discs, at least 10 chick embryos, graded 0 to +4",3.6
same,inhibited proliferation of vacularization,"[3]; CAM assay, 10 μg/disc",approximately 95%
same,% Inhibition,[4],2%
same,reduction in swelling compared to vehicle-only treated ears,[5],61%
same,% Inhibition,[6],15%
